In patent publication US11780851B2, “LRRK2 inhibitors” (H. Lundbeck A/S, priority 2021, dated 2023):
Where two headings read alike, the source gives them in different places.

Columns and labels:
[1] = Free fraction in plasma (equilibrium dialysis); assay type: in vitro ADME, male Sprague-Dawley rat; details: rat plasma, 1 μM, 5 h at 37° C.
Method: The free fractions in male Sprague-Dawley rat or female Gottingen minipig plasma (fuplasma) and rat brain homogenate (fubrain) were determined by equilibrium dialysis using 96-well HTD-dialysis plates with dialysis membranes (molecular weight cut off 12-14 KDa). One side of the HTD-dialysis plate was loaded with matrix (plasma or brain homogenate) and the other side with buffer (100 mM sodium phosphate buffer, pH 7.4). Test compounds were dissolved in DMSO then spiked (5 μL of 0.2 mM) into blank (995 μL) plasma or diluted brain homogenate (1:4 ratio in phosphate buffer) giving a final nominal concentration 1 μM (≤0.5% DMSO). The matrices were loaded into respective chambers and equilibrated against phosphate buffer for 5 h at 37° C. (in a humidified air incubator with 5% CO2 with shaking). Samples from both chambers (buffer and plasma or brain homogenate) were aliquoted to fresh 96-well polypropylene plates then matrix matched using an equal volume of opposite blank matrix before extraction with cold solvent (3 volumes acetonitrile) containing an appropriate bioanalytical internal standard. After centrifugation (20 min, 3200 g, 4° C.) the supernatants were diluted with appropriate volumes of water and compound concentrations were quantified by LC/MS-MS against matrix matched calibration standards. The fuplasma and fubrain were calculated as a percent free according to equation 4 below.
Where [F] is the analyte concentration on the buffer (receiver) side of the membrane; [T] is the analyte concentration on the plasma or brain (donor) side of the membrane; [TO] is the analyte concentration in the plasma or brain sample at time zero; D is matrix dilution factor which is determined as 4 for brain matrix and 1 for plasma matrix in these assays.

[2] = Rat B/P (brain disposition); assay type: in vivo, male Sprague-Dawley rats; details: male, Sprague-Dawley; for concentration at 1 h / Kp at 1 h / Kp uu at 1 h: time point 1.0 h
Method: Brain disposition was evaluated for each compound in male Sprague-Dawley rats (n=3, standard body weight). […] Isolated plasma and brain homogenates were extracted by standard protein precipitation in acetonitrile, containing internal standard, followed by LC-MS/MS analysis using an optimized analytical method. Concentrations of test compound in plasma and brain were quantified against matrix matched calibration standards. The total plasma and brain concentration data are presented in Table 7 alongside the calculated brain Kp (total brain concentration:total plasma concentration ratio).

LRRK2 G2019S = biological target: T1, LRRK2 G2019S (Homo sapiens, UniProt Q5S007, G2019S); assay: LRRK2 G2019S kinase activity assay (LanthaScreen TR-FRET); assay type: biochemical; details: 250 pM LRRK2 G2019S, 1.3 mM ATP, 3 h at 30° C.; n≥2 tests
T1 construct: purchased Invitrogen (Life Technologies Corporation)
T1 sequence (Q5S007 970-2527 G2019S): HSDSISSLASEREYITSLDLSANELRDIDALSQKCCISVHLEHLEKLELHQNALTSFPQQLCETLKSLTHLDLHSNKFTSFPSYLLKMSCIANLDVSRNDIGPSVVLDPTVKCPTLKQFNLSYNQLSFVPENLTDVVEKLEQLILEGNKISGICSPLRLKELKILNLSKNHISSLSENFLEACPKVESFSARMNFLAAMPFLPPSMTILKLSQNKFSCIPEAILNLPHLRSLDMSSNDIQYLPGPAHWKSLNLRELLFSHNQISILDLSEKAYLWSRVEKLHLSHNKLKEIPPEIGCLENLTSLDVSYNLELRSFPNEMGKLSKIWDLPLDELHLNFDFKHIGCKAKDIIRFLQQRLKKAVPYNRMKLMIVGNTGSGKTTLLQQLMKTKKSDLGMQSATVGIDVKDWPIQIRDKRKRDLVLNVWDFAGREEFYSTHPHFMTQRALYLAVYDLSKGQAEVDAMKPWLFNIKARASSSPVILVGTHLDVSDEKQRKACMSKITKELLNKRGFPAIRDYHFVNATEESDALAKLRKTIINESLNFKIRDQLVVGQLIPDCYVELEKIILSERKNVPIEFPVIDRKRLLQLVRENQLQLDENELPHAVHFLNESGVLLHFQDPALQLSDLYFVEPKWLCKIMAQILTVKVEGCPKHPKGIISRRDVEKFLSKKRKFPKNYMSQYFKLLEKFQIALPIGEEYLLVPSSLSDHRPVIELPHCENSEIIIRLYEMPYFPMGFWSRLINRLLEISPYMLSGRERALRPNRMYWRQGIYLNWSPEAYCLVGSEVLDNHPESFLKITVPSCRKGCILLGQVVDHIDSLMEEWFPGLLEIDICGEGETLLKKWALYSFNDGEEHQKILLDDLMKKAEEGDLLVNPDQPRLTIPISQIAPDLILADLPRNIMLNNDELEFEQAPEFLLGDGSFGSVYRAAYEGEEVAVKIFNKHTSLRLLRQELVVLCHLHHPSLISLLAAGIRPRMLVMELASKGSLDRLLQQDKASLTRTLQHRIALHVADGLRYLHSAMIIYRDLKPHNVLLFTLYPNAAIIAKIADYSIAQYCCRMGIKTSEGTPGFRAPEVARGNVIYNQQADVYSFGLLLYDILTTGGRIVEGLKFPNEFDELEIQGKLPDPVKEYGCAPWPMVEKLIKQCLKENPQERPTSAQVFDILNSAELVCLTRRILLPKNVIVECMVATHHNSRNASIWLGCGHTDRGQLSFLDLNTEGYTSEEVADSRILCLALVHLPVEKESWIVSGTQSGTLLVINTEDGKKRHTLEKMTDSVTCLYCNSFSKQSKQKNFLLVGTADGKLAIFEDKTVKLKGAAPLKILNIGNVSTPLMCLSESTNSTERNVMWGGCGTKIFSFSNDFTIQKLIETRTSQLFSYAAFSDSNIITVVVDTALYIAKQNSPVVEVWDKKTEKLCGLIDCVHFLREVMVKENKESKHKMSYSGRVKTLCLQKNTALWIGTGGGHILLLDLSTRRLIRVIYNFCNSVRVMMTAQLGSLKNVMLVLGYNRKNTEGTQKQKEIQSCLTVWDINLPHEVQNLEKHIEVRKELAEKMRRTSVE
Method: (§1) LRRK2 kinase activity was measured using a LanthaScreen kinase activity assay available from Invitrogen (Life Technologies Corporation). The assay is a homogeneous time resolved-fluorescence resonance energy transfer (TR-FRET) assay that measures phosphorylation of a fluorescein-labelled peptide substrate Fluorescein-ERM LRRKtide obtainable from Life Technologies Corporation as a result of LRRK2 kinase activity. The phosphorylated peptide is recognized by a terbium-labelled phospho-specific anti-LRRKtide antibody (pLRRKtide antibody), obtainable from Life Technologies Corporation and, subsequently, the phosphorylated LRRKtide can be quantified by the extent of TR-FRET between the terbium donor and fluorescein acceptor. The LRRK2 kinase was obtained from Invitrogen (Life Technologies Corporation) and comprises residue 970 to 2527 of the full length human wild-type LRRK2 kinase, or a similar sequence with the G2019S mutation. As discussed above, this mutation increases the kinase activity relative to the wild type. The kinase reactions were performed in a 20 μL volume in 384-well plates. […] The mixture was further incubated for 30 minutes at RT. […] The measurement was repeated 30 times for fluorescein and 30 times for terbium emission with a 1000 μs time window between repeats. TR-FRET measurements were performed on a Biotek Synergy plate. The TR-FRET signal was calculated as the emission-ratio at 520 nm over 495 nm. The TR-FRET ratio readout for test compounds was normalized to 0% inhibition corresponding to TR-FRET ratio measured in control wells with no inhibition of the kinase activity and 100% inhibition corresponding to TR-FRET ratio measured in control wells with inhibitor. […] C is the IC50 value and D is the Hill slope coefficient. IC50 estimates were obtained from independent experiment and the logarithmic average was calculated.

LRRK2 WT = biological target: T2, LRRK2 WT (Homo sapiens, UniProt Q5S007); assay: LRRK2 wild-type kinase activity assay (LanthaScreen TR-FRET); assay type: biochemical; details: 1 nM LRRK2 WT, 1.3 mM ATP, 3.5 h at 30° C.; n≥2 tests
T2 construct: comprises residue 970 to 2527 of the full length human wild-type LRRK2 kinase; purchased Invitrogen (Life Technologies Corporation)
T2 sequence (Q5S007 970-2527): as the sequence (Q5S007 970-2527 G2019S) above, with S1050G counted along it
Method: as §1

[3] = brain, oral gavage 10 mg/kg, mean ± stdev, n = 3, read-out: Total brain concentration
[4] = brain/plasma, oral gavage 10 mg/kg, mean ± stdev, n = 3
[5] = brain/plasma, po, 10 mg/kg, oral gavage 10 mg/kg, fubrain from brain homogenate
[6] = plasma, oral gavage 10 mg/kg, mean ± stdev, n = 3, read-out: Total plasma concentration

SMILES | fuplasma (% free) [1] | IC50 (LRRK2 G2019S) | IC50 (LRRK2 WT) | also measured
Cc1c2c(nn1C1CCOCC1)OCCCn1nc(Br)c3cnc(nc31)N2 [Example 6, 8-Bromo-3-methyl-2-(tetrahydro-2H-pyran-4-yl)-2,4,12,13-tetrahydro-11H-5,7-(azenometheno)dipyrazolo[3,4-b:5′,1′-g][1]oxa[4,6,8]triazacycloundecine] | 34.3 % free |  |  | concentration at 1 h [2, 3]: 1460 ± 244 ng/g; Kp at 1 h [2, 4]: 1.97 ± 0.27; Kp uu at 1 h [2, 5]: 0.44 ± 0.06; concentration at 1 h [2, 6]: 738 ± 24 ng/mL
Cc1c2c(nn1[C@H]1[C@@H]3COC[C@@H]31)OCCCn1nc(Cl)c3cnc(nc31)N2 [Example 38, 2-((1R,5S,6r)-3-Oxabicyclo[3.1.0]hexan-6-yl)-8-chloro-3-methyl-2,4,12,13-tetrahydro-11H-5,7-(azenometheno)dipyrazolo[3,4-b:5′,1′-g][1]oxa[4,6,8]triazacycloundecine] | 30.0 % free | 11 nM | 28 nM | concentration at 0.5 h ([2]; brain, oral gavage 10 mg/kg, time point 0.5 h, mean ± stdev, n = 3, read-out: Total brain concentration): 562 ± 83 ng/g; Kp uu at 0.5 h ([2]; brain/plasma, oral gavage 10 mg/kg, time point 0.5 h, fubrain from brain homogenate): 0.48 ± 0.03; Kp at 0.5 h ([2]; brain/plasma, oral gavage 10 mg/kg, time point 0.5 h, mean ± stdev, n = 3): 1.58 ± 0.1; concentration at 0.5 h ([2]; plasma, oral gavage 10 mg/kg, time point 0.5 h, mean ± stdev, n = 3, read-out: Total plasma concentration): 355 ± 31 ng/mL
Cc1c2c(nn1C1CCOCC1)OCCCn1nc(C3CC3)c3cnc(nc31)N2 [Example 7, 8-Cyclopropyl-3-methyl-2-(tetrahydro-2H-pyran-4-yl)-2,4,12,13-tetrahydro-11H-5,7-(azenometheno)dipyrazolo[3,4-b:5′,1′-g][1]oxa[4,6,8]triazacycloundecine] | 28.7 % free | 63 nM | 210 nM | concentration at 1 h [2, 3]: 949 ± 463 ng/g; Kp uu at 1 h ([2]; brain/plasma, oral gavage 10 mg/kg, fubrain from brain homogenate): 0.28 ± 0.1; Kp at 1 h [2, 4]: 0.63 ± 0.23; concentration at 1 h [2, 6]: 1550 ± 527 ng/mL
Cc1c2c(nn1[C@H]1CCOC[C@]1(C)F)OCCCn1nc(Cl)c3cnc(nc31)N2 (single isomer, unassigned) [Example 48, (−)-8-Chloro-2-((3R,4S) or (3S,4R)-3-Fluoro-3-methyltetrahydro-2H-pyran-4-yl)-3-methyl-2,4,12,13-tetrahydro-11H-5,7-(azenometheno)dipyrazolo[3,4-b:5′,1′-g][1]oxa[4,6,8]triazacycloundecine] |  | 18 nM | 90 nM | 
[2H]C1([2H])Oc2nn(C3CCOCC3)c(C)c2Nc2ncc3c(Cl)nn(c3n2)C([2H])([2H])C1([2H])[2H] [Example 20, 8-Chloro-3-methyl-2-(tetrahydro-2H-pyran-4-yl)-2,4,12,13-tetrahydro-11H-5,7-(azenometheno)dipyrazolo[3,4-b:5′,1′-g][1]oxa[4,6,8]triazacycloundecine-11,11,12,12,13,13-d6] |  | 5.1 nM | 14 nM | 
Cc1c2c(nn1[C@@H]1CCOC[C@@H]1C)OCCCn1nc(Cl)c3cnc(nc31)N2 (single isomer, unassigned) [Example 23, 8-Chloro-3-methyl-2-((3R,4S) or (3S,4R) or (3S,4S) or (3R,4R)-3-methyltetrahydro-2H-pyran-4-yl)-2,4,12,13-tetrahydro-11H-5,7-(azenometheno)dipyrazolo[3,4-b:5′,1′-g][1]oxa[4,6,8]triazacycloundecine] |  | 20 nM | 44 nM | 
Cc1c2c(nn1[C@@H]1CC1(F)F)OCCCn1nc(Cl)c3cnc(nc31)N2 (single isomer, unassigned) [Example 39, (−)-(R) or (S)-8-Chloro-2-(2,2-difluorocyclopropyl)-3-methyl-2,4,12,13-tetrahydro-11H-5,7-(azenometheno)dipyrazolo[3,4-b:5′,1′-g][1]oxa[4,6,8]triazacycloundecine] |  | 7.8 nM | 19 nM | 

The remaining compounds from weak to strong by IC50 (LRRK2 G2019S), led by results:

fuplasma (% free) [1] | IC50 (LRRK2 G2019S) | IC50 (LRRK2 WT) | SMILES | also measured
38.0 % free | 4 nM | 16 nM | Cc1c2c(nn1C1(C)COC1)OCCCn1nc(Cl)c3cnc(nc31)N2 [Example 14, 8-Chloro-3-methyl-2-(3-methyloxetan-3-yl)-2,4,12,13-tetrahydro-11H-5,7-(azenometheno)dipyrazolo[3,4-b:5′,1′-g][1]oxa[4,6,8]triazacycloundecine] | concentration at 1 h [2, 3]: 421 ± 168 ng/g; Kp at 1 h [2, 4]: 1.52 ± 0.37; Kp uu at 1 h [2, 5]: 0.3 ± 0.07; concentration at 1 h [2, 6]: 280 ± 102 ng/mL
 | 3.1 nM | 12 nM | [2H]C1([2H])CCn2nc(Cl)c3cnc(nc32)Nc2c(nn(C3CCOCC3)c2C)O1 [Example 46, 8-Chloro-3-methyl-2-(tetrahydro-2H-pyran-4-yl)-2,4,12,13-tetrahydro-11H-5,7-(azenometheno)dipyrazolo[3,4-b:5′,1′-g][1]oxa[4,6,8]triazacycloundecine-13,13-d2] | 
 | 2 nM | 4.9 nM | CCc1c2c(nn1[C@@H]1CCOC[C@H]1F)OCCCn1nc(Cl)c3cnc(nc31)N2 (single isomer, unassigned) [Example 56, (−)-8-Chloro-3-ethyl-2-((3R,4S) or (3S,4R)-3-fluorotetrahydro-2H-pyran-4-yl)-2,4,12,13-tetrahydro-11H-5,7-(azenometheno)dipyrazolo[3,4-b:5′,1′-g][1]oxa[4,6,8]triazacycloundecine] | 
 | 1.5 nM | 5.6 nM | CCc1c2c(nn1[C@@H]1CCOC[C@H]1F)OCCCn1nc(Cl)c3cnc(nc31)N2 (single isomer, unassigned) [Example 55, (+)-8-Chloro-3-ethyl-2-((3R,4S) or (3S,4R)-3-fluorotetrahydro-2H-pyran-4-yl)-2,4,12,13-tetrahydro-11H-5,7-(azenometheno)dipyrazolo[3,4-b:5′,1′-g][1]oxa[4,6,8]triazacycloundecine] | 
17.1 % free | 1.3 nM | 3.2 nM | Cc1c2c(nn1[C@@H]1CCOC3(CC3)C1)OCCCn1nc(Cl)c3cnc(nc31)N2 (single isomer, unassigned) [Example 53, (+)-(R) or (S)-8-Chloro-3-methyl-2-(4-oxaspiro[2.5]octan-7-yl)-2,4,12,13-tetrahydro-11H-5,7-(azenometheno)dipyrazolo[3,4-b:5′,1′-g][1]oxa[4,6,8]triazacycloundecine] | concentration at 1 h ([2]; brain, oral gavage 5 mg/kg, mean ± stdev, n = 3, read-out: Total brain concentration): 363 ± 138 ng/g; Kp uu at 1 h ([2]; brain/plasma, oral gavage 5 mg/kg, fubrain from brain homogenate): 0.65 ± 0.06; Kp at 1 h ([2]; brain/plasma, oral gavage 5 mg/kg, mean ± stdev, n = 3): 1.77 ± 0.16; concentration at 1 h ([2]; plasma, oral gavage 5 mg/kg, mean ± stdev, n = 3, read-out: Total plasma concentration): 203 ± 67 ng/mL
